This is an account of results in patent US8703769B2, “Use of EGFR inhibitors to prevent or treat obesity” (The University of North Carolina at Chapel Hill, priority 2005, dated 2014).

Type in all cases: in vivo
The target in experiment [1] is T1, EGFR (Mus musculus, UniProt Q01279).
T1 construct: from tissue; host or cells: whole animal: wild-type C57BL/6J male mice
In words: High fat diet with or without AG1478 for about 1 month, C57BL/6 male mice (Example 2). The settings on record: for accumulation of adipose tissue (percent body fat by DEXA): C57BL/6 male mice, HFD + AG1478 (144 ppm in diet) vs HFD alone, FIGS. 9-12. The protocol: (§1) Diets: A base Western Diet (D12079B, Research Diets, Inc., New Brunswick, N.J., U.S.A.) having 41% fat (kcal) was used in all studies, and is designated HFD. The small molecule inhibitor AG1478 (LC Laboratories, Woburn, Mass., U.S.A.) was added to this base diet to a final concentration of […]. This diet is designated HFD+INH.
(§2) In experiments using wild-type C57BL6/J (B6) mice, male mice were housed individually and were started on the diet experiments at 8 weeks of age. In Example 2, mice were maintained on the HFD or HFD+INH for 1 month. In Example 3, mice were maintained on the HFD (n=8) or HFD+INH (n=8) for 6 months. In Example 4, all mice were placed on the HFD for 3 months; after this time, Group 1 (n=4) was placed on HFD+INH, while Group 2 (n=4) was maintained on HFD.
(§3) Clinical chemistry: Non-fasted blood glucose levels were measured at baseline and monthly using the FREESTYLE® blood glucose monitor (Abbott Laboratories, Abbott Park, Ill., U.S.A.) which was calibrated per manufacturer's instruction prior to use. All measurements were taken from 4-5 pm. At sacrifice, blood was collected by retro-orbital bleed and serum was isolated. Serum concentrations of triglycerides and total cholesterol were measured using an automatic blood chemical analyzer (Johnson & Johnson, New Brunswick, N.J., U.S.A.) by the University of North Carolina at Chapel Hill Animal Clinical Chemistry and Gene Expression Laboratories Core.
(§4) Body composition analysis: On the day of analysis, mice were weighed, anaesthetized with 2-3% isofluorane, and body composition was determined with a PIXIMUS II™ Mouse Densitometer (GE Medical Systems, distributed by Faxitron X-Ray Corporation, Wheeling, Ill., U.S.A.) using software versions 1.46 and 2.10. These measurements were taken at baseline and monthly during the diet studies. The Dual-energy X-ray absorptiometry (DEXA) method of determining body composition and body fat has been validated in lean and obese mice (Brommage (2003) J Physiol Endocrinol Metab 285: E454-459).
(§5) Statistical analysis: Results are expressed as mean+/−STD. A two-sided unpaired student's t-test was used for preliminary statistical analysis.
FIGS. 9-12 depict the results of C57BL/6 male mice exposed either to a high fat diet (HFD; […]) or the HFD base diet plus the EGFR small molecule inhibitor AG1478 (144 ppm) for about 1 month. The mice were approximately 6 weeks old when started on the dietary study. Male littermates were housed together, so the data are shown as the mean per cage. There is an n of […] for the mice on the HFD+inhibitor (INH), with two test groups of 6 (HFD+INH1 and HFD+INH2) and an n of 4 for the HFD cage.

For experiment [2], the target named is T1, EGFR. In words: Already obese B6 male mice on HFD switched to HFD+INH (Example 4). To be noted: n=4 per group. The protocol: as §1, §2, §3, §4, §5
In order to assess whether EGFR inhibitors can effect weight loss or stasis in an already obese subject, obese mice were administered an EGFR inhibitor and body mass and chemistry measurements made over time while maintaining a HFD. Specifically, baseline measurements were taken of 2 month-old male B6 mice, which were then housed individually and placed on a HFD for 2 months. Body weights, blood glucose, and percent body fat were assessed at this time point, and mice were randomly assigned to two groups. Group 1 (Grp1) was continuously fed the HFD, while Group 2 (Grp2) was switched to the HFD+INH after the initial two months. Measurements were again assessed at 1 and 3 months after the diet switch (experimental month 3 and 5). All mice were sacrificed at month 5. At sacrifice, blood was collected for clinical chemistry and heart, liver and fat depots were dissected and weighed. A two-sided unpaired student's t-test was used for preliminary statistical analysis.

In experiment [3] the target is T1, EGFR. In words: High fat diet with or without AG1478 for 6 months, B6 male mice (Example 3). The protocol: as §1, §2, §3, §4, §5
In order to determine if the short-term effects on weight gain due to the inhibitor action were applicable over a longer time period, the experiments of Example 2 were extended over six months.
Baseline measurements (body weights, blood glucose, and percent body fat) were taken of 2-month-old male C57 BL/6J (B6) mice which were then housed individually and randomly assigned to receive either HFD or HFD+Inhibitor A (AG 1478). Measurements were again assessed at 1, 2 and 6 months of treatment. All mice were sacrificed at month 6. At sacrifice, blood was collected for clinical chemistry. Heart, liver and fat depots were also dissected and weighed. A two-sided unpaired student's t-test was used for preliminary statistical analysis.

The mark [4] stands for this setting: between treatment groups at sacrifice (month 5), FIG. 20B.
[5] abbreviates: between treatment groups, FIG. 21.
The mark [6] stands for this setting: HFD+inhibitor A vs HFD alone, six months, n=8 per group, FIG. 14.
Where [7] appears, read: plasma after 6 months, 7-8 mice per group, HFD+Inhibitor A vs HFD, FIG. 17.

T1 sequence (Q01279 25-1210): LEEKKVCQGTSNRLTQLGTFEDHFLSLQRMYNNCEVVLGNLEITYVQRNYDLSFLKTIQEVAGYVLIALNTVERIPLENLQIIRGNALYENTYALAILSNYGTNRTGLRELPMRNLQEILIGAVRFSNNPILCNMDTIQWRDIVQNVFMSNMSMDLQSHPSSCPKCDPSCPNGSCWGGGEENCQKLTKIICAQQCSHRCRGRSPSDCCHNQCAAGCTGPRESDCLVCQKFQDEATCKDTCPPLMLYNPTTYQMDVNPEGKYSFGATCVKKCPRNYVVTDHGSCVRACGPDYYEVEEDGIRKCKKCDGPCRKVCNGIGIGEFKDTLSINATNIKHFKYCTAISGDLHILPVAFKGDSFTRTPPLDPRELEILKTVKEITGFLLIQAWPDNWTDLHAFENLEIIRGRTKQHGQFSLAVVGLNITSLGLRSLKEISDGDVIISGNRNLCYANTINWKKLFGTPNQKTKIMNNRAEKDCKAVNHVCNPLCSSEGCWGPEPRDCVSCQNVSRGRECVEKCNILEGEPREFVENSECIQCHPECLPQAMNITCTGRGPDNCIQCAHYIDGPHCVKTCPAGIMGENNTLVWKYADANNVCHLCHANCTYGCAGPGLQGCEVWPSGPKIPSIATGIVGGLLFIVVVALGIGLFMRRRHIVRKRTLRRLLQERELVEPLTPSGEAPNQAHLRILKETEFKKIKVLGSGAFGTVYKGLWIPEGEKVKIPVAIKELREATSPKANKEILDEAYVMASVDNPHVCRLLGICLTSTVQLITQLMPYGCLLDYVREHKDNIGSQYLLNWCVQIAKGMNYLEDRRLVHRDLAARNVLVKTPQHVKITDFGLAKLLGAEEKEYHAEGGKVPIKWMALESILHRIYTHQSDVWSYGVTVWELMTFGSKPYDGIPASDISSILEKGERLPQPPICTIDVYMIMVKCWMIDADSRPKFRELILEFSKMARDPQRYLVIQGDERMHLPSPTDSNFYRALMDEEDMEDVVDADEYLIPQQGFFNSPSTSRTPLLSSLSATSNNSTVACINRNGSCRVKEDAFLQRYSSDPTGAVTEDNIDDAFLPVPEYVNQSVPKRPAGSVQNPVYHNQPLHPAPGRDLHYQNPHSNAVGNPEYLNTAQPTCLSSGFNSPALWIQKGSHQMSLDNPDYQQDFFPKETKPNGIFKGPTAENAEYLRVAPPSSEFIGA

Take `COc1cc2ncnc(Nc3cccc(Cl)c3)c2cc1OC` [AG1478, 4-(3-Chloroanillino)-6,7-dimethoxyquinazoline]: the “accumulation of adipose tissue (percent body fat by DEXA)” value on EGFR [1] (about 1 month) is on record as “reduction in adipose tissue accumulation”. For the same molecule, the “accumulation of adipose tissue (percent body fat by DEXA)” value at EGFR [1] (about 1 month, listed as AG 1478) is “successfully inhibited the accumulation of adipose tissue”. Further, at EGFR [1] (HFD+INH vs HFD control mice, one month, FIG. 11), the body weight gain result is on record as “gained less body weight”. Besides, the “food consumption per mouse per day” value at EGFR [1] (HFD+INH vs HFD, about 1 month, estimated from total food remaining per day, FIG. 10) is on record as “no significant difference”. At EGFR [2] (Group 2 (HFD+Inhibitor A) vs Group 1 (HFD), after 1 and 3 months on HFD+Inhibitor A, p<0.02, FIG. 18), the “percent increase in BW relative to BW at 2 months on HFD” value is listed as “significantly lower”. Further, the “percent increase in BF (H), body fat by DEXA relative to time of diet change” value on EGFR [2] (Group 2 vs Group 1, after 3 months on HFD+Inhibitor A, p<0.02, FIG. 19) is recorded as “significantly lower”. For the same molecule, the fat depot weights entry at EGFR [2] (between treatment groups at sacrifice (month 5), FIG. 20A) was “No significant differences”. Moreover, at EGFR [2] (setting [4]), the heart weight result is recorded as “No significant differences” and the liver weight entry was “No significant differences”. For the same molecule, on EGFR [2] (setting [5]), the blood glucose level result is on record as “no significant differences”, the total cholesterol level entry is recorded as “no significant differences” and the triglyceride level result is recorded as “no significant differences”. In addition, the “body weight (BW)” value at EGFR [3] (B6 male mice, HFD+inhibitor A vs HFD alone, 6 months, n=8 per group, FIG. 13) is recorded as “significantly decreased”. For the same molecule, the “percent body fat as assessed by DEXA” value at EGFR [3] (B6 male mice, HFD+inhibitor A vs HFD alone, 6 months, n=8 per group, p<0.001, FIG. 13) is listed as “significantly decreased”. In addition, at EGFR [3] (setting [6]), the fat mass result is listed as “decreased” and the lean body mass result was “no change”. For the same molecule, on EGFR [3] (after 6 months, HFD+Inhibitor A vs HFD, FIG. 16), the gross heart weight entry is recorded as “no significant differences”. Besides, the gross liver weight result on EGFR [3] (after 6 months, HFD+Inhibitor A vs HFD, p<0.02, FIG. 16) is on record as “significantly reduced”. Also, on EGFR [3] (dissection after 6 months, HFD+Inhibitor A vs HFD, FIG. 15), the “fat mass in the four major fat depots (intraperitoneal, intrascapular, kidney, perigonadal)” value is “decreased fat mass in all four major fat depots”. Moreover, at EGFR [3] (setting [7]), the total cholesterol level result was “significantly lower” and the triglyceride level result is “significantly lower”.
